Several values for one entry are separate records, joined by “and”; a condition that tells them apart may be missing. Equal entries are not always repeated.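 Cells were grown in 96-well plates and exposed to each compound for 48 hours at five concentrations; endpoints were interpolated linearly between bracketing concentrations, or set to the highest concentration if not reached. GI50 is the concentration that inhibits growth by half. Definition used: TGI = concentration required for complete inhibition of growth.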
Legend:
Assay in all cases: NCI anticancer screen, dose series, 48 h
A498 renal = system: A498 renal
CCRF-CEM leukemia = system: CCRF-CEM leukemia
HCT-15 colon = system: HCT-15 colon
HT29 colon = system: HT29 colon
IGROV1 ovarian = system: IGROV1 ovarian
NCI-H226 lung = system: NCI-H226 lung
RPMI-8226 leukemia = system: RPMI-8226 leukemia
UACC-257 melanoma = system: UACC-257 melanoma
DMS 273 small cell lung = system: DMS 273 small cell lung
XF 498 CNS = system: XF 498 CNS

| Compound | GI50 (A498 renal) | TGI (A498 renal) | GI50 (CCRF-CEM leukemia) | TGI (CCRF-CEM leukemia) | GI50 (HCT-15 colon) | TGI (HCT-15 colon) | GI50 (HT29 colon) | TGI (HT29 colon) [µM] | GI50 (IGROV1 ovarian) | TGI (IGROV1 ovarian) | GI50 (NCI-H226 lung) [µM] | TGI (NCI-H226 lung) [µM] | GI50 (RPMI-8226 leukemia) | TGI (RPMI-8226 leukemia) | GI50 (UACC-257 melanoma) | TGI (UACC-257 melanoma) | TGI (DMS 273 small cell lung) [µM] | TGI (XF 498 CNS) [µM] |
| --- | --- | --- | --- | --- | --- | --- | --- | --- | --- | --- | --- | --- | --- | --- | --- | --- | --- | --- |
| CC1(C)CC[C@]23CC[C@]4(C)[C@H](CC[C@@H]5[C@@]6(C)CCCNC(C)(C)[C@@H]6CC[C@]54C)[C@H]2[C@H]1OC3 | 1.68 µM | 3.67 µM | 2.32 µM | 6.73 µM | 1.31 µM | 2.68 µM | 1.78 µM | 3.63 | 1.79 µM | 3.48 µM | 1.7 | 3.47 | 1.94 µM | 4.58 µM | 1.92 µM | 3.87 µM | – | – |
| CC(=O)OCc1nnn2c1C(OC(C)=O)CC2 (stereo unspecified) | – | – | – | – | – | > 100 µM | – | > 100 | – | > 100 µM | – | > 100 | – | > 100 µM | – | > 100 µM | > 100 | > 100 |
| CC[C@]12C=CCN3CC[C@]4(C(=C(C(=O)OC)C1)Nc1cc5c(cc14)[C@@H]1[C@H](O5)[C@@H](O)[C@@]4(CC)CC(C(=O)OC)=C5Nc6ccccc6[C@@]56CCN1[C@@H]46)[C@@H]32 | 0.0729 µM and 0.283 µM | 0.788 µM and 1.17 µM | 0.238 µM and 0.345 µM | 25 µM and > 100 µM | 0.0964 µM and 0.26 µM | 3.37 µM and 1.42 µM | 0.13 µM and 0.186 µM | – | 0.156 µM and 0.253 µM | 3.99 µM and 14 µM | 0.688 | 25 | 0.141 µM and 0.234 µM | 2.49 µM and 1.5 µM | 0.582 µM and 0.672 µM | 25 µM and 42.8 µM | – | – |
| CC(C)(C)N1CC1CNC(=O)C(=O)NCC1CN1C(C)(C)C (stereo unspecified) | – | > 6.04 µM | – | 15.2 µM | – | 10.5 µM | – | 19.1 | – | 19.7 µM | – | 18.7 | – | > 18.3 µM | – | 11.1 µM | 0.517 | 1.31 |
| CCN1C(=O)/C(=c2\sc3n(c2=O)C2C(NN=3)N(CC)C(=O)N2CC)c2ccccc21 (stereo unspecified) | 0.181 µM | 0.697 µM | 0.433 µM | > 100 µM | 0.394 µM | > 100 µM | 0.369 µM | > 100 | 0.574 µM | > 65.5 µM | 0.736 | 22.8 | 0.366 µM | – | 22.4 µM | > 100 µM | – | – |
| CCOC(=O)C(C(=O)OCC)=C1C=C(c2ccccc2)c2ccccc21 | – | 62.9 µM | – | > 100 µM | – | > 100 µM | – | > 100 | – | > 100 µM | – | > 100 | – | 89.4 µM | – | > 100 µM | > 100 | > 100 |
| CCOC(=O)CCc1c(C)c2c(OC)cc(OC)cc2oc1=O | – | – | – | – | – | – | – | > 100 | – | – | – | > 100 | – | – | – | > 100 µM | > 100 | 93.8 |
| NS(=O)(=O)c1ccc(N=Nc2c(O)[nH]c3ccc(C(=O)NCCCn4ccnc4)cc23)cc1 | > 25 µM | > 25 µM | > 18.5 µM | > 25 µM | > 25 µM | > 25 µM | > 25 µM | > 25 | > 25 µM | > 25 µM | > 25 | > 25 | > 25 µM | > 25 µM | > 25 µM | > 25 µM | – | – |
| Cc1cc(O)ccc1C1(c2ccc(O)cc2C)OC(=O)c2ccccc21 | 17.7 µM | 33.3 µM | 24.4 µM | 67.7 µM | 16.3 µM | 30.7 µM | 19.9 µM | 35.5 | 21 µM | 47.5 µM | 19.1 | 41 | 28.1 µM | 78.7 µM | 23.8 µM | 46 µM | – | – |
| Cc1nc2ccc(-n3ncc(C(=O)c4cc5ccccc5[nH]4)c3N)cc2[nH]1 | 0.496 µM | 54.3 µM | 9.24 µM | 96 µM | 0.884 µM | 36.6 µM | 5.13 µM | 66.9 | 9.74 µM | > 100 µM | 10.5 | 49.9 | 8.1 µM | 54.7 µM | 26.6 µM | > 100 µM | – | – |
| Cc1ccc(C2=NN(c3ccc(S(=O)(=O)NC(=O)NCc4ccccc4)cc3)C(c3ccc(N(C)C)cc3)C2)c(C)c1 (stereo unspecified) | 3.08 µM | 12.5 µM | 3.2 µM | 89 µM | 3.27 µM | > 100 µM | 4.53 µM | 19.1 | 4.31 µM | 13.6 µM | 3.91 | 15.9 | 2.88 µM | 10.6 µM | 4.64 µM | > 100 µM | – | – |
| Cc1[nH]c(C(=O)Nc2cccc(OC3CCNCC3)c2)c(Cl)c1Cl | 1.89 µM | 4.6 µM | 1.92 µM | 4.26 µM | 1.73 µM | 3.36 µM | 1.92 µM | 4.44 | 1.76 µM | 3.37 µM | 2.43 | 6.78 | 2.05 µM | 4.59 µM | 1.76 µM | 3.55 µM | – | – |
| CCOC(=O)C1=C(C)NC2SC(=O)/C(=C\c3cccc(Cl)c3)N2C1c1ccccc1 (stereo unspecified) | > 100 µM | > 100 µM | > 100 µM | > 100 µM | > 100 µM | > 100 µM | > 100 µM | > 100 | > 100 µM | > 100 µM | > 100 | > 100 | > 100 µM | > 100 µM | > 100 µM | > 100 µM | – | – |
| COc1cc(/C=C2\CC3C4CCC5=CC(=O)CC[C@]5(C)C4CC[C@]3(C)C2=O)ccc1OCCN1CCCC1 (stereo partly specified) | 5.05 µM | 10.6 µM | 1.12 µM | 4.35 µM | 2.76 µM | 10.7 µM | 2.5 µM | > 28.5 | 2.33 µM | 5.73 µM | 1.81 | 7.08 | 0.202 µM | 0.889 µM | 2.5 µM | 6.15 µM | – | – |
| COc1cc(/C=C2\CCC/C(=C\c3cc(CN4CCCC4)c(O)c(OC)c3)C2=O)cc(CN2CCCC2)c1O | 2.94 µM | 8.54 µM | 2.71 µM | 8.37 µM | 2.34 µM | 7.87 µM | 0.322 µM | 1.78 | 3.24 µM | 13.3 µM | 2.57 | 6.84 | 2.16 µM | 7.58 µM | 5.29 µM | 19.6 µM | – | – |
| CCN(N=O)C1C2(CCCC2)NC(=O)C12CCCC2 (stereo unspecified) | – | > 100 µM | – | > 100 µM | – | > 100 µM | – | > 100 | – | > 100 µM | – | > 100 | – | > 100 µM | – | > 100 µM | – | > 100 |
